Target: human GPR17 short isoform (Homo sapiens (Human), UniProt Q13304)
Assay: GPR17 cAMP assay (hGPR17 cAMP, antagonist mode against EC80 of MDL29,951)
Type: cell-based
Conditions: CHO-K1 cells stably expressing human GPR17 short isoform; EC80 of agonist MDL29,951; forskolin 15 μM
Protocol: GPR17 cAMP Assay Protocol:
CHO-K1 cells stably expressing vector containing untagged human GPR17 short isoform (Roche) were cultured at 37° C./5% CO2 in DMEM (Dulbecco's Modified Eagle Medium):F-12 (1:1) supplemented with 10% foetal bovine serum and 400 μg/ml Geneticin.
Changes in intracellular cyclic adenosine monophosphate (cAMP) levels were quantified using the Nano-TRF Detection Assay kit (Roche Diagnostics, Cat. No. 05214386001). This assay allows for direct cAMP quantification in a homogeneous solution, cAMP is detected based on time-resolved fluorescence energy transfer (TR-FRET) and competitive binding of ruthenylated cAMP and endogenous cAMP to an anti-cAMP monoclonal antibody labeled with AlexaFluor-700. The Ruthenium complex serves as the FRET donor and transfers energy to AlexaFluor-700. The FRET signal is inversely proportional to the cAMP concentration.
CHO-GPR17S cells were detached with Accutase and resuspended in assay buffer consisting of Hank's Balanced Salt Solution (HBSS), 10 mM HEPES (4-(2-hydroxyethyl) piperazine-1-ethanesulfonic acid solution) and 0.1% bovine serum albumin (pH 7.4). The cells were seeded in black 384-well plates (Corning) at a density of 10,000 cells/20 μl assay buffer until the addition of compounds.
Test antagonist compounds were serially diluted in dimethyl sulfoxide (DMSO) and spotted in 384-well plates. The compounds were then diluted in HBSS buffer supplemented with an EC80 concentration of MDL29,951 (3-(2-Carboxy-4,6-dichloroindol-3-yl)propionic acid) (GPR17 agonist) plus 3-Isobutyl-1-methylxanthine (IBMX) (0.5 mM final concentration) and added to the cells at room temperature. Forskolin (15 μM final concentration) was added 5 minutes after the test compounds and the cells were incubated at room temperature for 30 minutes. The assay was stopped by adding cAMP detection mix (containing detergents for cell lysis) for 90 minutes at room temperature.
Cellular cAMP was measured using a Paradigm reader (Molecular Devices). The raw data was used to calculate the FRET signal based on the assay's P-factor as per cAMP kit instructions. The data was normalized to the maximal activity of a reference antagonist and dose response curves were fitted to the percent activity of the test compounds using a sigmoidal dose response model (Genedata Screener).

Chain of human GPR17 short isoform (Q13304 29-367): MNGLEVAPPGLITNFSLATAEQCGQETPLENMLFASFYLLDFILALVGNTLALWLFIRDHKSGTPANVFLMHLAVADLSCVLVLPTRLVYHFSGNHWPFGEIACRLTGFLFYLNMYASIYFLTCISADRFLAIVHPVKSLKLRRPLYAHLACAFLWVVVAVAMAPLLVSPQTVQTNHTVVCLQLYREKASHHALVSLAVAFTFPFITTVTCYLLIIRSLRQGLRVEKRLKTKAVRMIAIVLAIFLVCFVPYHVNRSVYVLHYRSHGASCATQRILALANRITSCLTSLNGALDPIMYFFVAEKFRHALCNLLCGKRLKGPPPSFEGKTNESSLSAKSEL

| IC50 | Structure (SMILES) |
| --- | --- |
| 30 nM | COc1nc(NS(=O)(=O)c2c[nH]c3c(OC4CC4)c(Cl)ccc23)ncc1CC(F)F [Example 127, 6-chloro-7-(cyclopropoxy)-N-[5-(2,2-difluoroethyl)-4-methoxy-pyrimidin-2-yl]-1H-indole-3-sulfonamide] |
| 29 nM | COc1nc(NS(=O)(=O)c2c[nH]c3c(C)c(Br)ccc23)ncc1CC(F)F [Example 184, 6-bromo-N-[5-(2,2-difluoroethyl)-4-methoxy-pyrimidin-2-yl]-7-methyl-1H-indole-3-sulfonamide] |
| 1180 nM | COc1nc(NS(=O)(=O)c2c[nH]c3cc(C4COC4)ccc23)ncc1CC(F)F [Example 272, N-[5-(2,2-difluoroethyl)-4-methoxy-pyrimidin-2-yl]-6-(oxetan-3-yl)-1h-indole-3-sulfonamide] |
| 718 nM | COc1nc(NS(=O)(=O)c2c[nH]c3c(S(C)(=O)=O)c(Cl)ccc23)ncc1CC(F)F [Example 277, 6-chloro-N-[5-(2,2-difluoroethyl)-4-methoxy-pyrimidin-2-yl]-7-mesyl-1h-indole-3-sulfonamide] |
| 446 nM | COc1nc(NS(=O)(=O)c2c[nH]c3c(Br)c(F)ccc23)ncc1CC(F)F [Example 128, 7-bromo-N-[5-(2,2-difluoroethyl)-4-methoxy-pyrimidin-2-yl]-6-fluoro-1H-indole-3-sulfonamide] |
| 488 nM | COc1nc(NS(=O)(=O)c2c[nH]c3cc(Cl)ccc23)ncc1CC(C)(F)F [Example 260, 6-chloro-N-[5-(2,2-difluoropropyl)-4-methoxy-pyrimidin-2-yl]-1H-indole-3-sulfonamide] |
| 110 nM | COc1nc(NS(=O)(=O)c2c[nH]c3c2ccc2sncc23)ncc1CC(F)F [Example 282, N-[5-(2,2-Difluoroethyl)-4-Methoxy-Pyrimidin-2-Yl]-1H-Pyrrolo[2,3-e][1,2]Benzothiazole-3-Sulfonamide] |
| 126 nM | COc1nc(NS(=O)(=O)c2c[nH]c3c(F)c(F)ccc23)ncc1CC(F)F [Example 164, N-[5-(2,2-difluoroethyl)-4-methoxy-pyrimidin-2-yl]-6,7-difluoro-1H-indole-3-sulfonamide] |
| 12 nM | COc1nc(NS(=O)(=O)c2c[nH]c3cc(Cl)ccc23)ncc1CCCF [Example 21, 6-chloro-N-[5-(3-fluoropropyl)-4-methoxy-pyrimidin-2-yl]-1H-indole-3-sulfonamide] |
| 36 nM | COc1nc(NS(=O)(=O)c2c[nH]c3nc(Cl)ccc23)nc(OC)c1CCC#N [Example 122, 6-chloro-N-[5-(2-cyanoethyl)-4,6-dimethoxy-pyrimidin-2-yl]-1H-pyrrolo[2,3-b]pyridine-3-sulfonamide] |
| 46 nM | COc1nc(NS(=O)(=O)c2c[nH]c3nc(C(F)F)ccc23)nc(OC)c1CCC#N [Example 239, N-[5-(2-cyanoethyl)-4,6-dimethoxy-pyrimidin-2-yl]-6-(difluoromethyl)-1H-pyrrolo[2,3-b]pyridine-3-sulfonamide] |
| 30 nM | COc1nc(NS(=O)(=O)c2c[nH]c3c(Cl)c(Cl)ccc23)ncc1CCC(F)F [Example 211, 6,7-dichloro-N-[5-(3,3-difluoropropyl)-4-methoxy-pyrimidin-2-yl]-1H-indole-3-sulfonamide] |
| 40 nM | COc1nc(NS(=O)(=O)c2c[nH]c3cc(Cl)ccc23)nc(OC(F)F)c1C [Example 72, 6-chloro-N-[4-(difluoromethoxy)-6-methoxy-5-methyl-pyrimidin-2-yl]-1H-indole-3-sulfonamide] |
| 30 nM | COc1nc(NS(=O)(=O)c2c[nH]c3nc(Br)ccc23)ncc1CCC(F)F [Example 201, 6-bromo-N-[5-(3,3-difluoropropyl)-4-methoxy-pyrimidin-2-yl]-1H-pyrrolo[2,3-b]pyridine-3-sulfonamide] |
| 23 nM | CCc1c(OC)nc(NS(=O)(=O)c2c[nH]c3cc(Cl)ccc23)nc1OC [Example 16, 6-chloro-N-(5-ethyl-4,6-dimethoxy-pyrimidin-2-yl)-1H-indole-3-sulfonamide] |
| 68 nM | COc1nc(NS(=O)(=O)c2c[nH]c3cc(Cl)ccc23)ncc1SC(F)F [Example 37, 6-chloro-N-[5-(difluoromethylthio)-4-methoxy-pyrimidin-2-yl]-1H-indole-3-sulfonamide] |

| IC50 | Structure (SMILES) |
| --- | --- |
| 39 nM | COc1nc(NS(=O)(=O)c2c[nH]c3cc(Cl)ccc23)nc(OC)c1CCC(F)(F)F [Example 64, 6-chloro-N-[4,6-dimethoxy-5-(3,3,3-trifluoropropyl)pyrimidin-2-yl]-1H-indole-3-sulfonamide] |
| 14 nM | COc1nc(NS(=O)(=O)c2c[nH]c3c(F)c(C(F)F)ccc23)nc(OC)c1CCC#N [Example 252, N-[5-(2-cyanoethyl)-4,6-dimethoxy-pyrimidin-2-yl]-6-(difluoromethyl)-7-fluoro-1H-indole-3-sulfonamide] |
| 76 nM | COc1nc(NS(=O)(=O)c2c[nH]c3c(N4CCOCC4)c(Cl)ccc23)nc(OC)c1CC(F)F [Example 133, 6-chloro-N-[5-(2,2-difluoroethyl)-4,6-dimethoxy-pyrimidin-2-yl]-7-morpholino-1H-indole-3-sulfonamide] |
| 138 nM | COc1nc(NS(=O)(=O)c2csc3nc(Br)ccc23)nc(OC)c1OC(F)F [Example 269, 6-bromo-N-[5-(difluoromethoxy)-4,6-dimethoxy-pyrimidin-2-yl]thieno[2,3-b]pyridine-3-Sulfonamide] |
| 23 nM | COc1nc(NS(=O)(=O)c2c[nH]c3c(Br)c(Cl)ccc23)ncc1CCC(F)F [Example 183, 7-bromo-6-chloro-N-[5-(3,3-difluoropropyl)-4-methoxy-pyrimidin-2-yl]-1H-indole-3-sulfonamide] |
| 57 nM | COc1nc(NS(=O)(=O)c2c[nH]c3nc(Br)ccc23)nc(OC)c1CC(F)CF (centres unmarked) [Example 288, 6-Bromo-N-[5-(2,3-Difluoropropyl)-4,6-Dimethoxy-Pyrimidin-2-Yl]-1H-Pyrrolo[2,3-b]Pyridine-3-Sulfonamide] |
| 167 nM | COc1nc(NS(=O)(=O)c2c[nH]c3cc(Br)ccc23)ncc1OC(F)F [Example 189, 6-bromo-N-[5-(difluoromethoxy)-4-methoxy-pyrimidin-2-yl]-1H-indole-3-sulfonamide] |
| 104 nM | CCc1ccc2c(S(=O)(=O)Nc3ncc(CC(F)F)c(OC)n3)c[nH]c2c1 [Example 152, N-[5-(2,2-difluoroethyl)-4-methoxy-pyrimidin-2-yl]-6-ethyl-1H-indole-3-sulfonamide] |
| 35 nM | COc1nc(NS(=O)(=O)c2c[nH]c3c(CC#N)c(Cl)ccc23)ncc1CC(F)F [Example 232, 6-chloro-7-(cyanomethyl)-N-[5-(2,2-difluoroethyl)-4-methoxy-pyrimidin-2-yl]-1H-indole-3-sulfonamide] |
| 40 nM | COc1nc(NS(=O)(=O)c2c[nH]c3c(C#N)c(Cl)ccc23)ncc1CC(F)F [Example 223, 6-chloro-7-cyano-N-[5-(2,2-difluoroethyl)-4-methoxy-pyrimidin-2-yl]-1H-indole-3-sulfonamide] |
| 72 nM | COc1nc(NS(=O)(=O)c2c[nH]c3nc(Br)ccc23)ncc1OCC(F)F [Example 161, 6-bromo-N-[5-(2,2-difluoroethoxy)-4-methoxy-pyrimidin-2-yl]-1H-pyrrolo[2,3-b]pyridine-3-sulfonamide] |
| 291 nM | COc1nc(NS(=O)(=O)c2c[nH]c3c2ccc2cccnc23)ncc1CC(F)F [Example 222, N-[5-(2,2-difluoroethyl)-4-methoxy-pyrimidin-2-yl]-1H-pyrrolo[3,2-h]quinoline-3-sulfonamide] |
| 94 nM | COc1nc(NS(=O)(=O)c2c[nH]c3cc(Cl)ccc23)nc(OC)c1OCF [Example 51, 6-chloro-N-[5-(fluoromethoxy)-4,6-dimethoxy-pyrimidin-2-yl]-1H-indole-3-sulfonamide] |
| 27 nM | COc1nc(NS(=O)(=O)c2c[nH]c3nc(Cl)ccc23)ncc1OC(F)(F)CF [Example 220, 6-chloro-N-[4-methoxy-5-(1,1,2-trifluoroethoxy)pyrimidin-2-yl]-1H-pyrrolo[2,3-b]pyridine-3-sulfonamide] |
| 25 nM | COc1nc(NS(=O)(=O)c2c[nH]c3c(C#N)c(Cl)ccc23)nc(OC)c1OC(F)F [Example 224, 6-chloro-7-cyano-N-[5-(difluoromethoxy)-4,6-dimethoxy-pyrimidin-2-yl]-1H-indole-3-sulfonamide] |
| 54 nM | COc1nc(NS(=O)(=O)c2c[nH]c3cc(C(F)F)ccc23)ncc1CC(F)F [Example 195, N-[5-(2,2-difluoroethyl)-4-methoxy-pyrimidin-2-yl]-6-(difluoromethyl)-1H-indole-3-sulfonamide] |

— US20240025883A1, “PYRIMIDIN-2-YL SULFONAMIDE DERIVATIVES” (Hoffmann-La Roche Inc., priority 2021, published 2024)
